From paper PMC6176987, “Correction of cognitive deficits in mouse models of Down syndrome by a pharmacological inhibitor of DYRK1A” (Disease Models & Mechanisms, 2018)

Legend:
[1] = tested on: DYRK1A; set-up: method as in Khan et al., 2006; Yang et al., 2009; settings: ref Khan et al., 2006; Yang et al., 2009; cited from earlier work
[2] = tested on: vimentin; set-up: method as in Khan et al., 2006; Yang et al., 2009; settings: ref Khan et al., 2006; Yang et al., 2009; cited from earlier work
[3] = biological target: laminin receptor; set-up: method as in Khan et al., 2006; Yang et al., 2009; settings: ref Khan et al., 2006; Yang et al., 2009; cited from earlier work
[4] = biological target: CDK2/cyclin A (Homo sapiens, UniProt P24941); experiment: Recombinant protein kinase assay, CDK2/cyclin A; type: biochemical; settings: 15 µM ATP
[5] = biological target: DYRK1A (Homo sapiens, UniProt Q13627); experiment: Recombinant protein kinase assay, DYRK1A; type: biochemical; settings: 15 µM ATP
[6] = tested on: Tg(Dyrk1a) mice; experiment: Novel object recognition (NOR) test in Tg(Dyrk1a) mice; type: in vivo, mouse; settings: daily i.p. treatment for 19 days
[7] = biological target: T1, CK2 (Homo sapiens, UniProt P68400); experiment: Recombinant protein kinase assay, CK2; type: biochemical; settings: 15 µM ATP
T1 construct: Cochet
T1 sequence (P68400 whole entry): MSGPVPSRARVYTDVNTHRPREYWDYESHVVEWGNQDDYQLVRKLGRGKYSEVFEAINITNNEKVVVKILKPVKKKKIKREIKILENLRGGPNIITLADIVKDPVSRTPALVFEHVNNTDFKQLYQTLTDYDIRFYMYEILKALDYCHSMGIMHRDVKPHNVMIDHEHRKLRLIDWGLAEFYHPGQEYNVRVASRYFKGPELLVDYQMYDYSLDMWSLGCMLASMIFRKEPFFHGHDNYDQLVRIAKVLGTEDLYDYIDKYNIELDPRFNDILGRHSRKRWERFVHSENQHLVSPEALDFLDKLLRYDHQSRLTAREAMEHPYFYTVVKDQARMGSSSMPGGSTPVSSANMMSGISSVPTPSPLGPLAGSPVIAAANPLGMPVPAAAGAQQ

[8] = biological target: T2, CDK9/cyclin T (Homo sapiens, UniProt P50750); experiment: Recombinant protein kinase assay, CDK9/cyclin T; type: biochemical; settings: 15 µM ATP
T2 construct: made in house; host or cells: insect cells
T2 sequence (P50750 whole entry): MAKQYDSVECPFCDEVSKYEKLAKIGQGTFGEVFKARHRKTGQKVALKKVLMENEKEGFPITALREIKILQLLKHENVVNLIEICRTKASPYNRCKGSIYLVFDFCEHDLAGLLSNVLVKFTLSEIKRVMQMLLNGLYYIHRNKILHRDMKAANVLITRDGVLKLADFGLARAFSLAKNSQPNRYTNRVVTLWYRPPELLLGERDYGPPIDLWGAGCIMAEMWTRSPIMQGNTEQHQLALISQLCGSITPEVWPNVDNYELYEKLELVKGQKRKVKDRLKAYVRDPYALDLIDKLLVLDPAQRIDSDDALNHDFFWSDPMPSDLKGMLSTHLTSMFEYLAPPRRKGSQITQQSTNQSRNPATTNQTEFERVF
T2 sequence (O60563 whole entry partner): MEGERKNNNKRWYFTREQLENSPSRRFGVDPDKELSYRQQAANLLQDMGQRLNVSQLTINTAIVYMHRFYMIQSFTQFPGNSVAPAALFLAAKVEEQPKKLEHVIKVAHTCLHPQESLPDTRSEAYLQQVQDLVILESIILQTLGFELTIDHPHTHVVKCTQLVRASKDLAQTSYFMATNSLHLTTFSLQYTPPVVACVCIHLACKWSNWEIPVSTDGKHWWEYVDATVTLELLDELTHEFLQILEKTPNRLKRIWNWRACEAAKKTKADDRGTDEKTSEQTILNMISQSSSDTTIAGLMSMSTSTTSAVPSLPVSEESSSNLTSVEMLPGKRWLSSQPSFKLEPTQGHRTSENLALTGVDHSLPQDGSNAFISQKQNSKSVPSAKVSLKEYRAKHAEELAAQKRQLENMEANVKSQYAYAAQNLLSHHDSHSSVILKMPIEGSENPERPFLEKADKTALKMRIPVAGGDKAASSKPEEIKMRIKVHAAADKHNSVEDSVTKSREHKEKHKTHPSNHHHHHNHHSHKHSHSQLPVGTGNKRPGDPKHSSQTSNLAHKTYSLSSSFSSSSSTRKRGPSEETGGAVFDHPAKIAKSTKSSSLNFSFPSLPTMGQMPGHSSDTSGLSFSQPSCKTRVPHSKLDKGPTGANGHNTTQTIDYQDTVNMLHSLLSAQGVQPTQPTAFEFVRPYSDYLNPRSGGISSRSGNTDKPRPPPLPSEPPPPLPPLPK

[9] = biological target: T3, DYRK1A (Mus musculus, UniProt Q61214); experiment: Brain DYRK1A catalytic activity after treatment, Tg(Dyrk1a) mice; type: in vivo; settings: 19 days of treatment
T3 construct: DYRK1A was purified from brain extracts by immunoprecipitation; from tissue; host or cells: mouse brain (wt, Tg(Dyrk1a), Ts65Dn)
Method: Protein kinase assays to measure the catalytic activity of DYRK1A in the brains of the animals treated with or without drugs were performed as follows: frozen half brains were homogenized in lysis buffer (1.2 ml/half brain) using Precellys® homogenizer tubes. After centrifugation at 2800 g for 2×15 s, 1 mg brain extract was incubated with 2 µg DYRK1A (H00001859 M01, Interchim) or GSK3-β (MBS8508391, Emelca Bioscience, France) antibodies at 4°C for 1 h under gentle rotation. Then, 20 µl protein G agarose beads (Thermo Fisher Scientific, France), previously washed three times with bead buffer (50 mM Tris pH 7.4, 5 mM NaF, 250 mM NaCl, 5 mM EDTA, 5 mM EGTA, 0.1% Nonidet P-40 and protease inhibitor cocktail from Roche, France), were added to the mix and gently rotated at 4°C for 30 min. After a 1 min spin at 10,000 g and removal of the supernatant, the pelleted immune complexes were washed three times with bead buffer, and a last time with Buffer C (60 mM β-glycerophosphate, 30 mM p-nitrophenolphosphate, 25 mM Mops pH 7.2, 5 mM EGTA, 15 mM MgCl2, 2 mM dithiothreitol, 0.1 mM sodium orthovanadate, 1 mM phenylphosphate, protease inhibitor cocktail). DYRK1A or GSK-3 immobilized on beads were assayed in buffer C as described in the Supplementary Materials and Methods with Woodtide ([…]) (1.5 µg/assay) or GSK3-tide ([…]pSED-EEE, where pS stands for phosphorylated serine) as substrates.

[10] = biological target: CLK2 (Mus musculus, UniProt O35491); experiment: Recombinant protein kinase assay, CLK2; type: biochemical; settings: 15 µM ATP; read-out: IC50 CLK2
Sequence of CLK2 (O35491 whole entry): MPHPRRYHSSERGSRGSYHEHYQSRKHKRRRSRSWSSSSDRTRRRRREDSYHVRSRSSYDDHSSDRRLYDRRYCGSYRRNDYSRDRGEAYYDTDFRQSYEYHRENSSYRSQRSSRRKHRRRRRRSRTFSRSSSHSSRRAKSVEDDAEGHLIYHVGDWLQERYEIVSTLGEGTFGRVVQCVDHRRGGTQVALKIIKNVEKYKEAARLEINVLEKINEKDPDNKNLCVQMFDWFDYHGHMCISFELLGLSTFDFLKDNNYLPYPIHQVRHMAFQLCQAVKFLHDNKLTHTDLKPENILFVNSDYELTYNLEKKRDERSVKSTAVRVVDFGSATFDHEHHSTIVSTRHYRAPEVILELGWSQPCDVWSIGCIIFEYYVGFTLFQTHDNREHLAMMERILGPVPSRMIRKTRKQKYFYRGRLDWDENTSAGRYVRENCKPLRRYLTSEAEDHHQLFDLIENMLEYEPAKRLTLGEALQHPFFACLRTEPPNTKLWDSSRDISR

[11] = biological target: DYRK3 (Homo sapiens, UniProt O43781); experiment: Recombinant protein kinase assay, DYRK3; type: biochemical; settings: 15 µM ATP
Sequence of DYRK3 (O43781 whole entry): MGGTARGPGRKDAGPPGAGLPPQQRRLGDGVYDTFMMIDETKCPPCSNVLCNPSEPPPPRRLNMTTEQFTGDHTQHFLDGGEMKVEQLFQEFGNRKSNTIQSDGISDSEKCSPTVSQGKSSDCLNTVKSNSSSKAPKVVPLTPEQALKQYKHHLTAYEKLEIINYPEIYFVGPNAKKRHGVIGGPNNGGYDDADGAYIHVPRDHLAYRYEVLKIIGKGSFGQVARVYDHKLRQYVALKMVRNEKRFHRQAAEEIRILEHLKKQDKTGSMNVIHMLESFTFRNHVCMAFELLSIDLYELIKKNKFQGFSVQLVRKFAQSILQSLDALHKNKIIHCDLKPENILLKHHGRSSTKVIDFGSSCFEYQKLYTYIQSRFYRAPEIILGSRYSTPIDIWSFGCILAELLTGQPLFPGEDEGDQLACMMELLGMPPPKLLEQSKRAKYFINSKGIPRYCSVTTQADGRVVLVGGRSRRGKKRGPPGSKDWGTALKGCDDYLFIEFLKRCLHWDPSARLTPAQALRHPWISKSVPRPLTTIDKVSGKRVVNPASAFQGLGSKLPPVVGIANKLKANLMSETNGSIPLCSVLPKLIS

[12] = biological target: CLK3 (Mus musculus, UniProt O35492); experiment: Recombinant protein kinase assay, CLK3; type: biochemical; settings: 15 µM ATP; read-out: IC50 CLK3
Sequence of CLK3 (O35492 whole entry): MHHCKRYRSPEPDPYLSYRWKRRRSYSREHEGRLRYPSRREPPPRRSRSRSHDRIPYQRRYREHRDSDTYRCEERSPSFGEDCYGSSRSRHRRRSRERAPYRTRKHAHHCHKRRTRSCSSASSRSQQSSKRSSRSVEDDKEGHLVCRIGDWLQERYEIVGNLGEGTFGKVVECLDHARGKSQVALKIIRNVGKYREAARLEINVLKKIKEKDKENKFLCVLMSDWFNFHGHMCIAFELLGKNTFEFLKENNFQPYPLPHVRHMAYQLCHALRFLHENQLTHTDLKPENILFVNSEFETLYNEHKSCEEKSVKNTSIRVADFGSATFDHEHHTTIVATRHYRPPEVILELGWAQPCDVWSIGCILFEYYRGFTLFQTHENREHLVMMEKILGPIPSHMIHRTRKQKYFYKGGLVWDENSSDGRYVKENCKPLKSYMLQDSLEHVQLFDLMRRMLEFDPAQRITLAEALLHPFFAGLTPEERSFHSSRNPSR

[13] = biological target: CDK5/p25 (Homo sapiens, UniProt Q00535); experiment: Recombinant protein kinase assay, CDK5/p25; type: biochemical; settings: 15 µM ATP
Sequence of CDK5/p25 (Q00535 whole entry): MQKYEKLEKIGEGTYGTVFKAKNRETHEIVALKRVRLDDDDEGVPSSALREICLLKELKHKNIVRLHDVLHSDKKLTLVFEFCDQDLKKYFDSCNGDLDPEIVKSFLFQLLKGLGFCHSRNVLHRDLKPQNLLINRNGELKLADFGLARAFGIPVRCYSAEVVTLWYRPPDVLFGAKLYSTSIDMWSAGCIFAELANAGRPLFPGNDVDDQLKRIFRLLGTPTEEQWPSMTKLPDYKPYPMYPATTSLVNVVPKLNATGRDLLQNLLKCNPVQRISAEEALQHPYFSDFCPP
Sequence of CDK5/p25 (Q15078 99-307 partner limits assumed): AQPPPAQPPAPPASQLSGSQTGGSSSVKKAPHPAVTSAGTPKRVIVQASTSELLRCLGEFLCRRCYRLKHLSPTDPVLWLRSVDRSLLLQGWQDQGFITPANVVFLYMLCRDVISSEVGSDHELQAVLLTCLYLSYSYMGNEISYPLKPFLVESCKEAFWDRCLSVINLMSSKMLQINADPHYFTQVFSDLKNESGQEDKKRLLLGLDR

[14] = biological target: PIM1 (Homo sapiens, UniProt P11309); experiment: Recombinant protein kinase assay, PIM1; type: biochemical; settings: 15 µM ATP
Sequence of PIM1 (P11309 whole entry): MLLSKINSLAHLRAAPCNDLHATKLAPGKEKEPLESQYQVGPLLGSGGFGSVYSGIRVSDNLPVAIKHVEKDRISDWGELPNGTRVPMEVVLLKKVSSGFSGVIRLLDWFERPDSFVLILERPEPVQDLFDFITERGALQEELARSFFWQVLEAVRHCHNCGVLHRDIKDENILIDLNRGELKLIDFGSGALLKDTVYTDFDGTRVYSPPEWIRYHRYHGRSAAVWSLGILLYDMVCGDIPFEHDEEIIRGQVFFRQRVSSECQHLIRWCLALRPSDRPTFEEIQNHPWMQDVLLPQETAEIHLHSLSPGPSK

[15] = biological target: CLK4 (Mus musculus, UniProt O35493); experiment: Recombinant protein kinase assay, CLK4; type: biochemical; settings: 15 µM ATP
[16] = biological target: CLK1 (Mus musculus, UniProt P22518); experiment: Recombinant protein kinase assay, CLK1; type: biochemical; settings: 15 µM ATP; read-out: IC50 CLK1
[17] = biological target: DYRK1B (Homo sapiens, UniProt Q9Y463); experiment: Recombinant protein kinase assay, DYRK1B; type: biochemical; settings: 15 µM ATP
Sequence of DYRK1B (Q9Y463 whole entry): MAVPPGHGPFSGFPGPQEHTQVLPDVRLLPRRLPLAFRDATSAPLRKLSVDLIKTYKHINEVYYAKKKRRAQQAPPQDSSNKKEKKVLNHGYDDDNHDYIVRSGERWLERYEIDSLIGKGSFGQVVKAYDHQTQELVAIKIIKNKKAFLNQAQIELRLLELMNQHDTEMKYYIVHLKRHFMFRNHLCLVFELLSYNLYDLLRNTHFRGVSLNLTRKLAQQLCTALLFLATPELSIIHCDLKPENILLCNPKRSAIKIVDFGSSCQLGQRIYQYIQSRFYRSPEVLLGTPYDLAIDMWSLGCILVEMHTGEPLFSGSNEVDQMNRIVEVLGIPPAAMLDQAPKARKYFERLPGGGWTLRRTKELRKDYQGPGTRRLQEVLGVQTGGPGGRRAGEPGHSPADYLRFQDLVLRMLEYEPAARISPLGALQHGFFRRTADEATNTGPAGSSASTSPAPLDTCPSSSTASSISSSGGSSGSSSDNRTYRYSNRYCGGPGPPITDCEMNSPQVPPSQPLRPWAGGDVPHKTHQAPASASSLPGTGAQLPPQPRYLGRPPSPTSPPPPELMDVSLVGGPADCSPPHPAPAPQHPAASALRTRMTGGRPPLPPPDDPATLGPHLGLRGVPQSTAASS

[18] = biological target: DYRK2 (Homo sapiens, UniProt Q92630); experiment: Recombinant protein kinase assay, DYRK2; type: biochemical; settings: 15 µM ATP

Question: For `O=C(O[C@@H]1Cc2c(O)cc(O)cc2O[C@@H]1c1cc(O)c(O)c(O)c1)c1cc(O)c(O)c(O)c1` [EGCG, epigallocatechin gallate], which IC50 [1] is on record?
Answer: 330 nM

Question: What about the IC50 [2] of the same compound?
Answer: 3 nM

Question: What about the IC50 [3] of the same compound?
Answer: 40 nM

Question: With `O=C1NC(Nc2ccccc2)=N/C1=C\c1ccc2c(c1)OCCCO2` [L43] as the compound, how does the IC50 [4] read?
Answer: > 10000 nM

Question: What about the IC50 [5] of the same compound?
Answer: 7400 nM

Question: What about the “Behavioural effect in NOR test” value [6] of the same compound?
Answer: lack of effects

Question: And the IC50 [7]?
Answer: > 10000 nM

Question: What about the IC50 [8] of the same compound?
Answer: > 10000 nM

Question: And the “Tg(Dyrk1a) brain DYRK1A activity” value [9]?
Answer: did not reduce

Question: And the IC50 [10]?
Answer: > 10000 nM

Question: And the IC50 [11]?
Answer: > 10000 nM

Question: What about the IC50 [12] of the same compound?
Answer: > 10000 nM

Question: And the IC50 [13]?
Answer: > 10000 nM

Question: Which IC50 [14] does the source give for `COc1cc(/C=C2\N=C(Nc3ccc(N4CCN(C)CC4)cc3)NC2=O)ccc1O` [L99] here?
Answer: 210 nM

Question: And the IC50 [4]?
Answer: > 10000 nM

Question: And the IC50 [5]?
Answer: 14 nM

Question: And the “Behavioural effect in NOR test” value [6]?
Answer: beneficial behavioural effects

Question: And the IC50 [7]?
Answer: > 10000 nM

Question: What about the IC50 [8] of the same compound?
Answer: 320 nM

Question: What about the IC50 [15] of the same compound?
Answer: 12 nM

Question: What about the IC50 [16] of the same compound?
Answer: 12 nM

Question: And the IC50 [10]?
Answer: 30 nM

Question: And the IC50 [11]?
Answer: 10 nM

Question: What about the IC50 [17] of the same compound?
Answer: 20 nM

Question: What about the IC50 [12] of the same compound?
Answer: 700 nM

Question: What about the IC50 [18] of the same compound?
Answer: 15 nM

Question: And the IC50 [13]?
Answer: > 10000 nM
